Test results published in PMC9243654 (Frontiers in Nutrition, 2022).
Where two headings read alike, the source gives them in different places.

Columns and labels:
[1] = ref PubChem database, cited from earlier work
[2] = in vitro
Method: The PAMPA-BBB assay was conducted according to the methodology followed by Di et al., with some modifications as described below ([15]). First, the BBB solution was prepared by dissolving 8 mg of PBL and 4 mg of cholesterol in 600 μl of n-dodecane. The initial donor solution was prepared by mixing 1 ml of extract (10 mg ml^−1 in EtOH) with 1 ml of buffer (PBS, pH = 7.4, 10 mM). The filter membrane of the donor plate was carefully coated with 5 μl of BBB solution. The acceptor plate was filled with 350 μl of buffer, and the donor plate was carefully assembled over the acceptor plate like a “sandwich.” Finally, the donor plate was filled with 350 μl of donor solution, covered, and incubated for 4 h at 37°C in the dark. After incubation time, 300 μl of the solution was taken from both plates, transferred to separate vials, and dried in the SpeedVac system at 40°C and 13 mbar pressure. Dried acceptor and donor solution were dissolved in 50 μl of pure EtOH before subjecting to UHPLC-Q-TOF-MS analysis. Permeability across in vitro BBB of the bioactive compound was measured according to Equation (1) ([25]), with some modifications in concentration rates.
(1) Pe=-ln[1-CA(t)/Ce]/A^*(1/VD+1/VA)^*t
Cequilibrium was calculated according to the following equation ([2]):
(2) Cequilibrium=[CD(t)*VD+CA(t)*VA]/(VD+VA)

[3] = compounds of RSFE extract, octanol-water partition coefficient
[4] = compounds identified in LPLE extract
[5] = PAMPA, pH 7.4, PAMPA-BBB log Pe (cm s−1)
[6] = PAMPA, pH 7.4, PAMPA-BBB log Pe, compound within LPLE (Nothofagus pumilio, lenga PLE extract), N.D = not detected in acceptor

Compound: CC(C)c1cc2c(c(O)c1O)[C@@]13CCCC(C)(C)[C@@H]1C[C@@H]2OC3=O [Carnosol]
- Log P [1, 3]: 4.4
- Papp at 4 h ([2]; PAMPA, pH 7.4, PAMPA-BBB log Pe (cm s−1), compound within RSFE extract, 4 h, 37°C, PBS pH 7.4): 50.1 ×10⁻⁶ cm/s
- Cross BBB potential ([2]; compound within RSFE extract): +++ (log Pe > −4.5)

Compound: O.Oc1cc(O)c2c(c1)O[C@H](c1ccc(O)c(O)c1)[C@@H](O)C2 [Catechin]
- Log P [1, 4]: 0.4
- Log P ([1]; compounds of ASFE extract): 0.4
- Cross BBB potential ([2]; PAMPA): -

Compound: COc1cc(/C=C/C=O)ccc1O [Coniferaldehyde]
- Log P [1, 4]: 1.5
- Log P ([1]; compounds of ASFE extract): 1.5
- PAMPA-BBB log Pe (cm s−1) ([2]; PAMPA, pH 7.4): −4.24 cm s−1
- PAMPA-BBB log Pe ([2]; compound within LPLE (Nothofagus pumilio, lenga PLE extract), N.D = not detected in acceptor): −4.65 cm s−1

Compound: C[C@H]1[C@H](C)CC[C@]2(C(=O)O)CC[C@]3(C)C(=CC[C@@H]4[C@@]5(C)C[C@@H](O)[C@H](O)C(C)(C)[C@@H]5CC[C@]43C)[C@H]12 [Corosolic acid]
- Log P [1, 4]: 6.4
- Cross BBB potential ([2]; PAMPA): ++
- Papp at 4 h [2, 5]: 6.03 ×10⁻⁶ cm/s
- Papp at 4 h [2, 6]: 8.51 ×10⁻⁶ cm/s

Compound: O=C(/C=C/c1ccc(O)cc1)O[C@@H](C(=O)O)[C@@H](O)C(=O)O [Coutaric acid]
- Log P [1, 4]: 0.4
- Log P ([1]; compounds of ASFE extract): 0.4
- Cross BBB potential ([2]; compound within ASFE extract): -
- Cross BBB potential ([2]; compound within LPLE (Nothofagus pumilio, lenga PLE extract), classes based on Könczöl et al.): -

Compound: COc1ccc(-c2cc(=O)c3c(O)cc(O)cc3o2)cc1O [Diosmetin]
- Cross BBB potential ([2]; PAMPA): ++ (key: -: not detected in acceptor; +: log Pe > −6.5; ++: log Pe > −5.5; +++: log Pe > −4.5)
- Papp [2, 5]: 31.6 ×10⁻⁶ cm/s

Compound: O=c1oc2c(O)c(O)cc3c(=O)oc4c(O)c(O)cc1c4c23 [Ellagic acid]
- Cross BBB potential ([2]; PAMPA): -

Compound: O=C1C[C@@H](c2ccc(O)c(O)c2)Oc2cc(O)cc(O)c21 [Eriodictyol]
- Log P [1, 3]: 2.0

Compound: CCOC(=O)/C=C/c1ccc(O)c(O)c1 [Ethyl caffeate]
- Papp at 4 h ([2]; PAMPA, pH 7.4, PAMPA-BBB log Pe (cm s−1), compound within T33 extract, 4 h, 37°C, PBS pH 7.4): 18.6 ×10⁻⁶ cm/s
- Cross BBB potential ([2]; compound within T33 extract): ++ (log Pe > −5.5)

Compound: COc1cc(/C=C/C(=O)O)ccc1O [Ferulic acid]
- Cross BBB potential ([2]; PAMPA): ++ (key: -: not detected in acceptor; +: log Pe > −6.5; ++: log Pe > −5.5; +++: log Pe > −4.5)
- PAMPA-BBB log Pe (cm s−1) ([2]; PAMPA, pH 7.4): −4.68 cm s−1
- Cross BBB potential ([2]; compound within ASFE extract): -

Compound: O=C(O)c1cc(O)c(O)c(O)c1 [Gallic acid]
- Papp at 4 h [2, 6]: 69.2 ×10⁻⁶ cm/s

Compound: COc1cc(O)c2c(=O)cc(-c3ccc(O)cc3)oc2c1 [Genkwanin]
- Papp at 4 h [2, 5]: 9.55 ×10⁻⁶ cm/s

Compound: O=c1c(O[C@@H]2O[C@H](CO)[C@@H](O)[C@H](O)[C@H]2O)c(-c2ccc(O)c(O)c2)oc2cc(O)cc(O)c12 [Isoquercitrin]
- Cross BBB potential ([2]; PAMPA): -

Compound: O=c1cc(-c2ccc(O)c(O)c2)oc2cc(O)cc(O)c12 [Luteolin]
- Papp at 4 h [2, 5]: 38 ×10⁻⁶ cm/s

Compound: O=c1c(O)c(-c2cc(O)c(O)c(O)c2)oc2cc(O)cc(O)c12 [Myricetin]
- Cross BBB potential ([2]; PAMPA): -

Compound: Oc1cc(O)c2c(c1)O[C@H](c1ccc(O)c(O)c1)[C@H](O)[C@H]2c1c(O)cc(O)c2c1O[C@H](c1ccc(O)c(O)c1)[C@H](O)C2 [Procyanidin B2]
- Cross BBB potential ([2]; PAMPA): -

Compound: O=C(/C=C/c1ccc(O)c(O)c1)O[C@H](Cc1ccc(O)c(O)c1)C(=O)O [Rosmarinic acid]
- Log P [1, 3]: 2.4
- Log P ([1]; compounds of T33 extract): 2.4

Compound: C[C@@H]1O[C@@H](OC[C@H]2O[C@@H](Oc3c(-c4ccc(O)c(O)c4)oc4cc(O)cc(O)c4c3=O)[C@H](O)[C@@H](O)[C@@H]2O)[C@H](O)[C@H](O)[C@H]1O [Rutin]
- Cross BBB potential ([2]; PAMPA): -

Compound: COc1cc2ccc(=O)oc2cc1O [Scopoletin]
- Papp at 4 h [2, 5]: 75.9 ×10⁻⁶ cm/s
- Papp at 4 h [2, 6]: 28.2 ×10⁻⁶ cm/s

Compound: O=c1ccc2ccc(O)cc2o1 [Umbelliferone]
- Papp at 4 h ([2]; PAMPA, pH 7.4): 38 ×10⁻⁶ cm/s
- Cross BBB potential ([2]; compound within RSFE extract): +++ (log Pe > −4.5)

Compound: COc1cc(C(=O)O)ccc1O[C@@H]1O[C@H](CO)[C@@H](O)[C@H](O)[C@H]1O [Vanillic acid-O-hexoside]
- Cross BBB potential ([2]; compound within RSFE extract): +++ (log Pe > −4.5)
- PAMPA-BBB log Pe (cm s−1) ([2]; compound within RSFE extract, 4 h, 37°C, PBS pH 7.4): −4.19 cm s−1

Compound: COc1cc(C=O)ccc1O [Vanillin]
- Papp at 4 h [2, 5]: 70.8 ×10⁻⁶ cm/s
- Papp at 4 h [2, 6]: 33.1 ×10⁻⁶ cm/s
